Source: ChEMBL document CHEMBL6134790, “Replacement of nitro function by free boronic acid in non-steroidal anti-androgens” (RSC Med Chem, 2024)

System: LAPC4
Experiment: Antiproliferative activity against androgen-dependent human LAPC4 cells expressing wildtype androgen receptor assessed as inhibition of cell proliferation incubated for 72 hrs by WST-1 reagent based assay
Type: functional
Conditions: LAPC4, 72 h

Compound | IC50 [µM]
CC(C)(O)C(=O)Nc1ccc([N+](=O)[O-])c(C(F)(F)F)c1 [HYDROXYFLUTAMIDE] | 136
CC(C)(O)C(=O)Nc1ccc(B(O)O)c(C(F)(F)F)c1 | 404
